The source of these data is US12233064B1, “Antarctic tunicate Synoicum species-derived alkaloids and methods of treatment” (University of South Florida, priority 2019, dated 2025).

One data set has as its system zebrafish embryos. The experiment in a line: Developmental (phenotypic) zebrafish bioassay. As to conditions: for Final C tested (concentration most representative of the phenotype) / MTC (Maximum Tolerated Concentration) / concentration at which interesting phenotype demonstrated: zebrafish embryos; for Final C tested (concentration most representative of the phenotype): 24 h post fertilization; for MTC (Maximum Tolerated Concentration): compound added 4 h, end 24 h post fertilization; for phenotype of treated embryos compared to control: 24h post-fertilization, FIG. 16. The class given is in vivo, Danio rerio. The procedure:
Wildtype Danio rerio fish were used for the assay. Once the zebrafish eggs were collected, they were placed in fresh media along with methylene blue, to deter fungal growth. The embryos were sorted and placed in a 96-well plate and the volume was standardized. For the purpose of this screening it was determined that the optimal point to add the compounds was 4 hours post fertilization and the ending point of the assay was 24 hours post fertilization. The delay in growth and the dysmorphologies were monitored and assessed.
A developmental zebrafish assay was utilized to test the activity of the extract, the subsequent fractions, and the isolated compounds. […] The Maximum Tolerated Concentration (MTC) was determined for each compound, alongside the minimum active concentration for each compound. The final tested concentration was determined as the one most representative of the phenotype.

The subject of a further data set is Leishmaniasis. The experiment in a line: Leishmaniasis assay.
The next data set concerns Plasmodium falciparum. As to conditions: synthetic Meridianin A; cited from earlier work.
For data set [1], the system named is A549 (Human lung adenocarcinoma epithelial cell line). The note with it: synthetic Meridianin A; cited from earlier work.

Regarding `Nc1nccc(C2(O)C(=O)Nc3ccccc32)n1` (stereo not shown) [Australindolone A], in the data set with zebrafish embryos, the “Final C tested (concentration most representative of the phenotype)” value (“Final C tested” below) amounted to 300 µM and the “MTC (Maximum Tolerated Concentration)” value is 1000 µM.

Regarding `Nc1nccc(-c2c[nH]c3cccc(O)c23)n1` [Meridianin A], in the data set on zebrafish embryos, the “Final C tested” value was 30 µM and the “MTC (Maximum Tolerated Concentration)” value was 100 µM. The “result of Leishmaniasis assay” value in the data set with Leishmaniasis is “notable”. Also, the “growth of P. falciparum” value in the data set with Plasmodium falciparum was “inhibit the growth of P. falciparum”. Besides, the “cytotoxicity to A549” value in data set [1] was “cytotoxic to A549”.

For the compound `Nc1nccc(-c2c[nH]c3cc(Br)cc(O)c23)n1` [Meridianin B], in the data set with zebrafish embryos, the “Final C tested” value was 100 µM and the “MTC (Maximum Tolerated Concentration)” value is 300 µM.

Take `Nc1nccc(-c2c[nH]c3ccc(Br)cc23)n1` [Meridianin C]: in the data set with zebrafish embryos, the “phenotype of treated embryos compared to control” value is reported as “truncation of the anterior-posterior axis”, the “concentration at which interesting phenotype demonstrated” value was 3 µM, the “Final C tested” value came out at 3 µM and the “MTC (Maximum Tolerated Concentration)” value worked out at 10 µM.

With `Nc1nccc(-c2c[nH]c3cc(Br)ccc23)n1` [Meridianin D], in the data set on zebrafish embryos, the “Final C tested” value was determined as 65 µM and the “MTC (Maximum Tolerated Concentration)” value was determined as 100 µM.

In the case of `Nc1nccc(-c2c[nH]c3c(Br)ccc(O)c23)n1` [Meridianin E], in the data set on zebrafish embryos, the “Final C tested” value stood at 10 µM and the “MTC (Maximum Tolerated Concentration)” value amounted to 100 µM.

As to `Nc1nccc(-c2c[nH]c3cc(Br)c(Br)cc23)n1` [Meridianin F], in the data set on zebrafish embryos, the “phenotype of treated embryos compared to control” value is reported as “truncation of the anterior-posterior axis”, the “concentration at which interesting phenotype demonstrated” value is 2 µM, the “Final C tested” value turned out to be 2 µM and the “MTC (Maximum Tolerated Concentration)” value was determined as 10 µM.

On to `Nc1nccc(-c2c[nH]c3ccccc23)n1` [Meridianin G], for which, in the data set with zebrafish embryos, the “Final C tested” value is 100 µM and the “MTC (Maximum Tolerated Concentration)” value was determined as 300 µM.

With `Nc1nccc(-c2c[nH]c3c(Br)cc(Br)c(O)c23)n1` [Meridianin H], in the data set with zebrafish embryos, the “Final C tested” value was 60 µM and the “MTC (Maximum Tolerated Concentration)” value was found to be 100 µM.
